# In ChEMBL document CHEMBL4308854, “Novel indole-thiazolidinone conjugates: Design, synthesis and whole-cell phenotypic evaluation as a novel class of antimicrobial agents” (Eur J Med Chem, 2018):
# Columns and labels:
# Hs-578T = assay: Growth inhibition of human Hs 578T cells assessed as cell growth at 10^-5 M incubated for 48 hrs by sulforhodamine B assay relative to control; format: cell-based; parameters: scale not given: the % may be the effect or the level left; settings: 10 µM
# NCI-H23 = assay: Growth inhibition of human NCI-H23 cells assessed as cell growth at 10^-5 M incubated for 48 hrs by sulforhodamine B assay relative to control; format: cell-based; parameters: scale not given: the % may be the effect or the level left; settings: nci-h23, 48 h, 10 µM
# Escherichia coli = assay: Potency index, ratio of ciprofloxacin MIC to compound MIC for Escherichia coli RCMB 010052; format: functional
# Staphylococcus aureus [1] = assay: Antibacterial activity against Staphylococcus aureus RCMB 010028 after 24 hrs by serial dilution method; format: functional; settings: RCMB 010028, 24 h
# MDA-MB-468 = assay: Growth inhibition of human MDA-MB-468 cells assessed as cell growth at 10^-5 M incubated for 48 hrs by sulforhodamine B assay relative to control; format: cell-based; parameters: scale not given: the % may be the effect or the level left; settings: mda-mb-468, 48 h, 10 µM
# K562 = assay: Growth inhibition of human K562 cells assessed as cell growth at 10^-5 M incubated for 48 hrs by sulforhodamine B assay relative to control; format: cell-based; parameters: scale not given: the % may be the effect or the level left; settings: k562, 48 h, 10 µM
# HOP-92 = assay: Growth inhibition of human HOP92 cells assessed as cell growth at 10^-5 M incubated for 48 hrs by sulforhodamine B assay relative to control; format: cell-based; parameters: scale not given: the % may be the effect or the level left; settings: hop-92, 48 h, 10 µM
# MOLT-4 = assay: Growth inhibition of human MOLT4 cells assessed as cell growth at 10^-5 M incubated for 48 hrs by sulforhodamine B assay relative to control; format: cell-based; parameters: scale not given: the % may be the effect or the level left; settings: molt-4, 48 h, 10 µM
# MDA-MB-435 = assay: Growth inhibition of human MDA-MB-435 cells assessed as cell growth at 10^-5 M incubated for 48 hrs by sulforhodamine B assay relative to control; format: cell-based; parameters: scale not given: the % may be the effect or the level left; settings: mda-mb-435, 48 h, 10 µM
# Mycolicibacterium aurum = assay: Antitubercular activity against Mycobacterium aurum infected in mouse RAW264.7 cells measured after 48 hrs; format: functional
# MCF7 = assay: Growth inhibition of human MCF7 cells assessed as cell growth at 10^-5 M incubated for 48 hrs by sulforhodamine B assay relative to control; format: cell-based; parameters: scale not given: the % may be the effect or the level left; settings: mcf7, 48 h, 10 µM
# Aspergillus fumigatus [2] = assay: Antifungal activity against Aspergillus fumigatus RCMB 02568 after 24 hrs by serial dilution method; format: functional; settings: RCMB 02568, 24 h
# MDA-MB-231 = assay: Growth inhibition of human MDA-MB-231 cells assessed as cell growth at 10^-5 M incubated for 48 hrs by sulforhodamine B assay relative to control; format: cell-based; parameters: scale not given: the % may be the effect or the level left; settings: mda-mb-231, 48 h, 10 µM
# SF-295 = assay: Growth inhibition of human SF295 cells assessed as cell growth at 10^-5 M incubated for 48 hrs by sulforhodamine B assay relative to control; format: cell-based; parameters: scale not given: the % may be the effect or the level left; settings: sf-295, 48 h, 10 µM
# Aspergillus fumigatus [3] = assay: Antifungal activity against Aspergillus fumigatus RCMB 02568 assessed as diameter of zone inhibition after 48 hrs by agar well diffusion assay; format: functional
# SK-MEL-28 = assay: Growth inhibition of human SK-MEL-28 cells assessed as cell growth at 10^-5 M incubated for 48 hrs by sulforhodamine B assay relative to control; format: cell-based; parameters: scale not given: the % may be the effect or the level left; settings: sk-mel-28, 48 h, 10 µM
# NCI-H522 = assay: Growth inhibition of human NCI-H522 cells assessed as cell growth at 10^-5 M incubated for 48 hrs by sulforhodamine B assay relative to control; format: cell-based; parameters: scale not given: the % may be the effect or the level left; settings: nci-h522, 48 h, 10 µM
# SN12C = assay: Growth inhibition of human SN12C cells assessed as cell growth at 10^-5 M incubated for 48 hrs by sulforhodamine B assay relative to control; format: cell-based; parameters: scale not given: the % may be the effect or the level left; settings: 10 µM
# A549 = assay: Growth inhibition of human A549 cells assessed as cell growth at 10^-5 M incubated for 48 hrs by sulforhodamine B assay relative to control; format: cell-based; parameters: scale not given: the % may be the effect or the level left; settings: a549, 48 h, 10 µM
# [4] = Cytotoxicity against mouse RAW264.7 cells; format: cell-based
# KM12 = assay: Growth inhibition of human KM12 cells assessed as cell growth at 10^-5 M incubated for 48 hrs by sulforhodamine B assay relative to control; format: cell-based; parameters: scale not given: the % may be the effect or the level left; settings: km12, 48 h, 10 µM
# SR = assay: Growth inhibition of human SR cells assessed as cell growth at 10^-5 M incubated for 48 hrs by sulforhodamine B assay relative to control; format: cell-based; parameters: scale not given: the % may be the effect or the level left; settings: 10 µM
# LOX IMVI = assay: Growth inhibition of human LOXIMVI cells assessed as cell growth at 10^-5 M incubated for 48 hrs by sulforhodamine B assay relative to control; format: cell-based; parameters: scale not given: the % may be the effect or the level left; settings: 10 µM
# [5] = tested on: Mycobacterium tuberculosis; assay: Potency index, ratio of isoniazid MIC to compound MIC for antitubercular activity against Mycobacterium tuberculosis RCMB 010126 clinical isolate; format: functional
# WI-38 = assay: Cytotoxicity against human WI38 cells by MTT assay; format: cell-based
# NCI-H226 = assay: Growth inhibition of human NCI-H226 cells assessed as cell growth at 10^-5 M incubated for 48 hrs by sulforhodamine B assay relative to control; format: cell-based; parameters: scale not given: the % may be the effect or the level left; settings: nci-h226, 48 h, 10 µM
# Staphylococcus aureus [6] = assay: Antibacterial activity against Staphylococcus aureus RCMB 010028 assessed as diameter of zone inhibition after 24 hrs by agar well diffusion assay; format: functional
# NCI/ADR-RES = assay: Growth inhibition of human NCI/ADR-RES cells assessed as cell growth at 10^-5 M incubated for 48 hrs by sulforhodamine B assay relative to control; format: cell-based; parameters: scale not given: the % may be the effect or the level left; settings: 10 µM
# Pseudomonas aeruginosa = assay: Antibacterial activity against Pseudomonas aeruginosa RCMB 010043 assessed as diameter of zone inhibition after 24 hrs by agar well diffusion assay; format: functional
# SF-268 = assay: Growth inhibition of human SF268 cells assessed as cell growth at 10^-5 M incubated for 48 hrs by sulforhodamine B assay relative to control; format: cell-based; parameters: scale not given: the % may be the effect or the level left; settings: sf-268, 48 h, 10 µM
# Malme-3M = assay: Growth inhibition of human MALME-3M cells assessed as cell growth at 10^-5 M incubated for 48 hrs by sulforhodamine B assay relative to control; format: cell-based; parameters: scale not given: the % may be the effect or the level left; settings: 10 µM
# NCI-H322M = assay: Growth inhibition of human NCI-H322M cells assessed as cell growth at 10^-5 M incubated for 48 hrs by sulforhodamine B assay relative to control; format: cell-based; parameters: scale not given: the % may be the effect or the level left; settings: 10 µM
# Candida albicans = assay: Antifungal activity against Candida albicans RCMB 05036 after 24 hrs by serial dilution method; format: functional; settings: RCMB 05036, 24 h
# M14 = assay: Growth inhibition of human M14 cells assessed as cell growth at 10^-5 M incubated for 48 hrs by sulforhodamine B assay relative to control; format: cell-based; parameters: scale not given: the % may be the effect or the level left; settings: m14, 48 h, 10 µM
# [7] = tested on: Mycobacterium tuberculosis; assay: Antitubercular activity against Mycobacterium tuberculosis RCMB 010126 clinical isolate after 4 days by microplate alamar blue assay; format: functional; settings: for MIC: Mycobacterium tuberculosis, RCMB 010126, 96 h
# SNB-75 = assay: Growth inhibition of human SNB75 cells assessed as cell growth at 10^-5 M incubated for 48 hrs by sulforhodamine B assay relative to control; format: cell-based; parameters: scale not given: the % may be the effect or the level left; settings: snb-75, 48 h, 10 µM
# DU-145 = assay: Growth inhibition of human DU145 cells assessed as cell growth at 10^-5 M incubated for 48 hrs by sulforhodamine B assay relative to control; format: cell-based; parameters: scale not given: the % may be the effect or the level left; settings: du-145, 48 h, 10 µM
Structure (SMILES),Activity (Hs-578T) [%],Activity (NCI-H23) [%],Ratio (Escherichia coli),MIC (Staphylococcus aureus [1]) [µg/mL],Activity (MDA-MB-468) [%],Activity (K562) [%],Activity (HOP-92) [%],Activity (MOLT-4) [%],Activity (MDA-MB-435) [%],MIC (Mycolicibacterium aurum) [µg/mL],Activity (MCF7) [%],MIC (Aspergillus fumigatus [2]) [µg/mL],Activity (MDA-MB-231) [%],Activity (SF-295) [%],diameter of the inhibition zone (DIZ) (Aspergillus fumigatus [3]) [mm],Activity (SK-MEL-28) [%],Activity (NCI-H522) [%],Activity (SN12C) [%],Activity (A549) [%],GI50 [4] [µg/mL],other results
CC(=O)c1sc(/N=C2\NC(=O)/C(=C3/C(=O)N(C)c4ccc(Cl)cc43)S2)nc1C,115.73,96.3,4,0.98,94.2,100.75,95.24,105.36,101.04,25,86.13,0.98,91.15,101.25,22.2,99.13,88.75,96.85,105.29,125,Activity (KM12): 94.43%; Activity (SR): 115.03%; Activity (LOX IMVI): 88.14%; Ratio [5]: 2; IC50 (WI-38): 19.5 µg/mL; Activity (NCI-H226): 94.2%; diameter of the inhibition zone (DIZ) (Staphylococcus aureus [6]): 22.4 mm; Activity (NCI/ADR-RES): 99.92%; diameter of the inhibition zone (DIZ) (Pseudomonas aeruginosa): 22.2 mm; Activity (SF-268): 98.04%; Activity (Malme-3M): 85.96%; Activity (NCI-H322M): 96.29%; MIC (Candida albicans): 0.49 µg/mL; Activity (M14): 100.08%; inhibition (INH) [7]: 76.35%; MIC [7]: 0.39 µg/mL; Activity (SNB-75): 104.77%; Activity (DU-145): 100.78%
CCOC(=O)c1sc(/N=C2\NC(=O)/C(=C3/C(=O)N(Cc4ccccc4)c4ccc(Cl)cc43)S2)nc1C,94.4,96.32,2,0.98,108.31,101.93,92.11,97.7,107.3,50,97.06,1.95,100.41,103.03,21.3,113.38,90.82,102.35,97.17,62.5,Activity (KM12): 101.95%; Activity (SR): 102.18%; Activity (LOX IMVI): 96.03%; Ratio [5]: 2; IC50 (WI-38): 52.1 µg/mL; Activity (NCI-H226): 94.7%; diameter of the inhibition zone (DIZ) (Staphylococcus aureus [6]): 22.5 mm; Activity (NCI/ADR-RES): 101.26%; diameter of the inhibition zone (DIZ) (Pseudomonas aeruginosa): 22.3 mm; Activity (SF-268): 93.91%; Activity (Malme-3M): 102.79%; Activity (NCI-H322M): 111.22%; MIC (Candida albicans): 1.95 µg/mL; Activity (M14): 98.8%; inhibition (INH) [7]: 75.32%; MIC [7]: 0.39 µg/mL; Activity (SNB-75): 90.57%; Activity (DU-145): 104.75%
